Measured values taken from patent US5084455A, “Novel indole carboxamides” (Roussel Uclaf, priority 1985, dated 1992).
Where a name gives a salt, the structure may show the parent alone. Read-outs that look alike come from different tables or passages of the source.

Tests used:
[1] = test system: disturbances of the cardiac rhythm; assay: Anti-arrhythmic action in the rat (aconitine perfusion); format: in vivo, male rats
Method: Male rats weighing 300-350 g were anesthetized intra-peritoneally with 1.20 g/kg of urethane, then tracheotomized and submitted to artificial respiration (40-50 breaths of 3 ml/minute). Needles were implanted subcutaneously so as to record the electro-cardiogram of the rats on the DII derivation signal. The products under test were administered intravenously or orally.
Five minutes after the administration of the product intravenously or 1 hour after administration orally, the jugular vein of the rats was perfused with 10 μg/minute from 0.2 ml of a solution of aconitine, and the time of appearance of disturbances of the cardiac rhythm was noted, (10 μg of aconitine corresponding to a perfusion of 0.2 ml of solution). The results are expressed as a percentage of the extension of the time of appearance of the disturbances of the cardiac rhythm as compared with controls, and as a function of the dose of the product under test.

[2] = test system: mice; assay: Study of the acute toxicity; format: in vivo; settings: oral
Method: The lethal doses LD50 of the different compounds tested were evaluated after administration orally to mice. The maximum dose not causing any mortality in 8 days was called the LD0 and the following results were obtained.

[3] = test system: Rat caudal arteries; assay: Test of calcium-antagonistic activity in vitro (K+ depolarized caudal arteries); format: cell-based; settings: 100 mM K+, 37° C., read-out: IC50, inhibition of the contraction due to K+ ions
Method: Calcium chloride was added in a volume of 250 μl to obtain a series of increasing concentrations of Ca^2+ ions ranging from 0.1 to 3.0 mM. The contractions of the arteries were recorded and a control series were thus established. The operation was repeated with the series of CA^2+ ions every 15 minutes and the preparation was washed four times after each series. When a stable response was obtained, the operation with the series of CA^2+ ions was performed in the presence of different concentrations of the test product, until a stable response was obtained.
The contractions of the arteries depend on the entry of Ca^2+ ions into the cells of the smooth muscles, and were caused by the depolarization of the smooth muscle by the K^+ ions and by the action of the noradrenaline released at presynaptic level. By starting the operation again with arteries denervated by the action of 6-OH-dopamine, the specific action due to noradrenaline was eliminated.

[4] = read-out: Percentage of prolongation in the time
[5] = iv, read-out: Percentage extension of the time of appearance of disturbances of the cardiac rhythm
[6] = po, read-out: Percentage extension of the time of appearance of disturbances of the cardiac rhythm
[7] = iv, read-out: Percentage of prolongation in the time

Structure (SMILES): CC(C)NCCCOc1ccccc1NC(=O)c1cccc2[nH]ccc12 [Example 41, N-[2-[3-[Isopropylamino]propoxy]phenyl]-1H-indole-4-carboxamide]
- change in vivo at 1 mg/kg [1, 4]: 34%
- change in vivo at 2.5 mg/kg [1, 4]: 57%
- change in vivo at 5 mg/kg [1, 4]: 156%

Structure (SMILES): CC(C)(C)NCCCOc1ccccc1C(=O)Nc1cccc2[nH]ccc12 [Example 6, 2-[3-[(1,1-dimethylethyl)amino]propoxy]-N-(1H-indol-4-yl)benzamide]
- change in vivo at 1 mg/kg [1, 5]: 23%
- change in vivo at 2.5 mg/kg [1, 5]: 41%
- change in vivo at 2.5 mg/kg [1, 6]: 29%
- LD0 (maximum dose not causing any mortality in 8 days) [2]: 200 mg/kg

Structure (SMILES): CC(C)(C)NCCCOc1ccccc1NC(=O)c1cccc2[nH]ccc12 [Example 3, N-[2-[3-[(1,1-dimethylethyl)amino]propoxy]phenyl]-1H-indol-4-carboxamide hydrochloride]
- change in vivo at 2.5 mg/kg [1, 5]: 68%

Structure (SMILES): O=C(Nc1ccccc1OCCCNC1CCCCC1)c1cccc2[nH]ccc12 [Example 43, N-[2-[3-(Cyclohexylamino)propoxy]phenyl]-1H-indole-4-carboxamide]
- change in vivo at 1 mg/kg [1, 4]: 49%
- change in vivo at 2.5 mg/kg [1, 4]: 83%

Structure (SMILES): CC(C)(C)NCCOc1ccccc1NC(=O)c1cccc2[nH]ccc12 [Example 2, N-[2-[2-[(1,1-dimethylethyl)amino]ethoxy]phenyl]-1H-indol-4-carboxamide]
- change in vivo at 1 mg/kg [1, 5]: 6%
- change in vivo at 2.5 mg/kg [1, 5]: 57%
- LD0 (maximum dose not causing any mortality in 8 days) [2]: 80 mg/kg

Structure (SMILES): COc1ccc(C(=O)Nc2cccc3[nH]ccc23)c(OCC(O)CNC(C)(C)C)c1 (stereo not drawn) [Example 53, 2-[3-(1,1-dimethylethyl)-amine]-2-hydroxy-propoxy-N-(1H-indol-4-yl)-4-methoxy-benzamide]
- change in vivo at 1 mg/kg [1, 7]: 10%
- change in vivo at 2.5 mg/kg [1, 7]: 38%
- IC50 [3]: 8 µM

Structure (SMILES): CC(C)(C)NCC(O)COc1ccc(Cl)cc1C(=O)Nc1cccc2[nH]ccc12 (stereo not drawn) [Example 54, 5-Chloro-2-[3-(1,1-dimethylethyl)-amino]-2-hydroxy-propoxy-N-(1H-indol-4-yl)-benzamide]
- IC50 [3]: 5.4 µM

Structure (SMILES): CC(C)(C)CC(C)(C)NCC(O)COc1ccccc1C(=O)Nc1cccc2[nH]ccc12 (stereo not drawn) [Example 36, 2-[2-Hydroxy-3-[1,1,3,3-tetramethylbutyl-amino]propoxy]-N-(1H-indol-4-yl)benzamide]
- change in vivo at 1 mg/kg [1, 4]: 25%
- change in vivo at 2.5 mg/kg [1, 4]: 69%
- IC50 [3]: 0.44 µM

Structure (SMILES): O=C(Nc1cccc2[nH]ccc12)c1ccccc1OCCCNCC1CCCCC1 [Example 32, 2-[3-[Cyclohexylmethylamino]-propoxy)-N-(1H-indol-4-yl)benzamide]
- change in vivo at 1 mg/kg [1, 5]: 43%
- change in vivo at 2.5 mg/kg [1, 5]: 71%
- change in vivo at 5 mg/kg [1, 5]: 97%
- change in vivo at 6.5 mg/kg [1, 5]: 28%
- IC50 [3]: 3.9 µM
- LD0 (maximum dose not causing any mortality in 8 days) [2]: 100 mg/kg

Structure (SMILES): O=C(Nc1ccccc1OCCCNC1CCCC1)c1cccc2[nH]ccc12 [Example 42, N-[2-[3-(Cyclopentylamino)propoxy]phenyl]-1H-indol-4-carboxamide]
- change in vivo at 1 mg/kg [1, 4]: 29%
- change in vivo at 2.5 mg/kg [1, 4]: 86%

Structure (SMILES): O=C(Nc1cccc2[nH]ccc12)c1ccccc1OCC(O)CN1CCN(C(c2ccccc2)c2ccccc2)CC1 (stereo not drawn) [Example 46, 2-[2-Hydroxy-3-[4-(diphenylmethyl)-1-piperazinyl]propoxy]-N-(1H-indol-4-yl)benzamide]
- change in vivo at 2.5 mg/kg [1, 4]: 67%
- change in vivo at 5 mg/kg [1, 4]: 127%
- change in vivo at 10 mg/kg [1, 4]: 203%
- IC50 [3]: 0.25 µM
- LD0 (maximum dose not causing any mortality in 8 days) [2]: 400 mg/kg

Structure (SMILES): CC(C)(C)NCC(O)COc1ccc([N+](=O)[O-])cc1C(=O)Nc1cccc2[nH]ccc12 (stereo not drawn) [Example 50]
- change in vivo at 0.5 mg/kg [1, 7]: 17%
- change in vivo at 1 mg/kg [1, 7]: 39%
- change in vivo at 2.5 mg/kg [1, 7]: 77%
- LD0 (maximum dose not causing any mortality in 8 days) [2]: 200 mg/kg

Structure (SMILES): CCC(C)(C)NCCCOc1ccccc1C(=O)Nc1cccc2[nH]ccc12 [Example 30, 2-[3-[(1,1-dimethylpropyl)amino]-propoxy]-N-(1H-indol-4-yl)benzamide]
- change in vivo at 2.5 mg/kg [1, 5]: 38%
- change in vivo at 5 mg/kg [1, 5]: 99%
- change in vivo at 10 mg/kg [1, 5]: 147%
- IC50 [3]: 8 µM
- LD0 (maximum dose not causing any mortality in 8 days) [2]: 80 mg/kg

Structure (SMILES): CC(C)(C)NCCCCOc1ccccc1C(=O)Nc1cccc2[nH]ccc12 [Example 33, 2[4-[1,1-Dimethylethylamino]butoxy]-N-(1H-indol-4-yl)benzamide]
- change in vivo at 5 mg/kg [1, 4]: 54%
- change in vivo at 10 mg/kg [1, 4]: 99%
- IC50 [3]: 6.3 µM
- LD0 (maximum dose not causing any mortality in 8 days) [2]: > 400 mg/kg

Structure (SMILES): C#CC(C)(C)NCC(O)COc1ccccc1C(=O)Nc1cccc2[nH]ccc12 (stereo not drawn) [Example 35, 2-[3-[1,1-Dimethyl-2-propynylamino]-2-hydroxypropoxy]-N-(1H-indol-4-yl) benzamide]
- IC50 [3]: 9 µM

Structure (SMILES): CC(C)(CO)NCC(O)COc1ccccc1C(=O)Nc1cccc2[nH]ccc12 (stereo not drawn) [Example 37, 2-[3-[1,1-Dimethyl-2-hydroxyethylamino]-2-hydroxypropoxy]-N-(1H-indol-4-yl)benzamide]
- change in vivo at 1 mg/kg [1, 4]: 47%
- change in vivo at 5 mg/kg [1, 4]: 116%

Structure (SMILES): CC(C)(C)NCCOc1ccccc1C(=O)Nc1cccc2[nH]ccc12.Cl [Example 5, 2-[2-[(1,1-dimethylethyl)amino]ethoxy]-N-(1H-indol-4-yl)-benzamide hydrochloride]
- change in vivo at 0.25 mg/kg [1, 5]: 9%
- change in vivo at 0.5 mg/kg [1, 5]: 36%
- change in vivo at 1 mg/kg [1, 5]: 33%
- change in vivo at 2.5 mg/kg [1, 5]: 61%
- change in vivo at 2.5 mg/kg [1, 6]: 22%
- change in vivo at 5 mg/kg [1, 6]: 32%
- change in vivo at 10 mg/kg [1, 6]: 59%
- LD0 (maximum dose not causing any mortality in 8 days) [2]: 60 mg/kg

Structure (SMILES): CCCNCCCOc1ccccc1C(=O)Nc1cccc2[nH]ccc12 [Example 38, N-(1H-Indol-4-yl)-2-[3-(propylamino)propoxy]-benzamide]
- change in vivo at 2.5 mg/kg [1, 4]: 42%
- change in vivo at 5 mg/kg [1, 4]: 76%
- change in vivo at 10 mg/kg [1, 4]: 173%

Structure (SMILES): CC(C)(C)NCC(O)COc1ccccc1C(=O)Nc1cccc2[nH]ccc12 (stereo not drawn) [Example 4, 2-[3-[(1,1-dimethylethyl)amino]-2-hydroxypropoxy]-N-(1H-indol-4-yl)benzamide]
- change in vivo at 0.5 mg/kg [1, 5]: 17%
- change in vivo at 1 mg/kg [1, 5]: 38%
- change in vivo at 2.5 mg/kg [1, 5]: 124%
- change in vivo at 5 mg/kg [1, 6]: 7%
- change in vivo at 10 mg/kg [1, 6]: 46%
- change in vivo at 25 mg/kg [1, 6]: 81%
- LD0 (maximum dose not causing any mortality in 8 days) [2]: > 400 mg/kg

Structure (SMILES): CC(C)N(CC(O)COc1ccccc1C(=O)Nc1cccc2[nH]ccc12)C(C)C (stereo not drawn) [Example 15]
- change in vivo at 2.5 mg/kg [1, 5]: 25.5%
- change in vivo at 5 mg/kg [1, 5]: 56%
- LD0 (maximum dose not causing any mortality in 8 days) [2]: ≥ 400 mg/kg

Structure (SMILES): CCC(C)(C)NCCCOc1ccccc1NC(=O)c1cccc2[nH]ccc12 [Example 44, N-[2-[3-[1,1-Dimethylpropylamino]propoxy]phenyl]-1H-indole-4-carboxamide]
- change in vivo at 1 mg/kg [1, 4]: 50%
- change in vivo at 2.5 mg/kg [1, 4]: 90%
- change in vivo at 5 mg/kg [1, 4]: 167%
- LD0 (maximum dose not causing any mortality in 8 days) [2]: 200 mg/kg

Structure (SMILES): COc1ccc(CCNCCCOc2ccccc2NC(=O)c2cccc3[nH]ccc23)cc1OC [Example 45, N-[2-[3-[[2-(3,4-dimethoxyphenyl)ethyl]-amino]propoxy]phenyl]-1H-indole-4-carboxamide]
- change in vivo at 2.5 mg/kg [1, 4]: 60%
- change in vivo at 5 mg/kg [1, 4]: 142%
- change in vivo at 10 mg/kg [1, 4]: 193%

Structure (SMILES): CC(C)N(CCOc1ccccc1C(=O)Nc1cccc2[nH]ccc12)C(C)C [Example 12, 2-[2-[bis(1-methylethyl)-amino]ethoxy-]N-(1H-indol-4-yl) benzamide]
- LD0 (maximum dose not causing any mortality in 8 days) [2]: > 400 mg/kg

Structure (SMILES): Cn1ccc2c(NC(=O)c3ccccc3OCC(O)CN3CCN(C(c4ccccc4)c4ccccc4)CC3)cccc21 (stereo not drawn) [Example 49]
- IC50 [3]: 3 µM

Structure (SMILES): O=C(Nc1cccc2[nH]ccc12)c1ccccc1OCCCNC1CCCCC1 [Example 31, 2-[3-(Cyclohexylamino)propoxy]-N-(1-H-indol-4-yl)benzamide]
- change in vivo at 1 mg/kg [1, 5]: 24%
- change in vivo at 2.5 mg/kg [1, 5]: 34%
- change in vivo at 5 mg/kg [1, 5]: 83%
- IC50 [3]: 1.8 µM

Structure (SMILES): COc1cc(CCN2CCN(CCCCOc3ccccc3C(=O)Nc3cccc4[nH]ccc34)CC2)cc(OC)c1OC [Example 47, N-(1H-Indol-4-yl)-2-[4-[4-[2-(3,4,5-trimethoxyphenyl)ethyl]-1-piperazinyl]butoxy]benzamide]
- change in vivo at 5 mg/kg [1, 4]: 44%
- change in vivo at 10 mg/kg [1, 4]: 67%
- IC50 [3]: 2.8 µM

Structure (SMILES): CC(C)(CO)NCCCOc1ccccc1C(=O)Nc1cccc2[nH]ccc12 [Example 40, 2-[3-[1,1-dimethyl-2-hydroxyethylamino]-propoxy]-N-(1H-indol-4-yl)benzamide]
- change in vivo at 1 mg/kg [1, 4]: 21%
- change in vivo at 2.5 mg/kg [1, 4]: 50%
- IC50 [3]: 8.4 µM

Structure (SMILES): CC(C)(C)NCC(O)COc1ccccc1NC(=O)c1cccc2[nH]ccc12 (stereo not drawn) [Example 1, N-[2-[3-[(1,1-dimethylethyl)amino]-2-hydroxypropoxy]-phenyl]-1H-indol-4-carboxyamide]
- change in vivo at 0.25 mg/kg [1, 5]: 31%
- change in vivo at 0.5 mg/kg [1, 5]: 41%
- change in vivo at 1 mg/kg [1, 5]: 110%
- LD0 (maximum dose not causing any mortality in 8 days) [2]: 80 mg/kg
